These results are taken from patent US4233309A, “Novel 1-substituted-3-acylpyrrole derivatives, platelet aggregation inhibitors containing them, as active ingredients, and processes for production of said derivatives” (Teijin Limited, priority 1977, dated 1980).

The structures appear in SMILES notation. Converted amounts (≈) assume the structure as drawn. Like-named read-outs stand apart in the source and are kept apart here.

A word on the inhibition: it is the change of the read-out against control, counted positive when it falls.

Test [1] concerns platelet aggregation (platelet-rich plasmas (PRP) of guinea pigs). In words: Activity of inhibiting platelet aggregation in vitro, guinea pig PRP, sodium arachidonate as aggregating agent (Table 1). It is filed as cell-based, Hartley-strain male guinea pigs. Particulars: Cavia porcellus, sodium arachidonate 0.03 mM final, 37° C., final concentration, read-out: IC50 (minimum concentration of drug which showed a percent inhibition of more than 50%). The procedure: Some 1-substituted-3-acylpyrrole derivatives and other drugs were tested for platelet aggregation inhibiting activities in vitro using platelet-rich plasmas (PRP) of man and guinea pigs. The results are shown as minimum concentration of drugs which inhibit more than 50% of platelet aggregation induced by several aggregating agents.
In experiments with PRP of guinea pigs, sodium arachidonate (final concentration 0.03 mM) was used as an aggregating agent. In experiments with human PRP, sodium arachidonate (final concentration 0.1 mM), collagan suspension (final concentration 10 μg/ml), epinephrine solution (final concentration 20 μg/ml; for secondary aggregation), an epinephrine solution (final concentration 2 μg/ml; for primary aggregation) and ADP (final concentration 5 μM) were used as aggregating agents.
In an experiment with guinea pig PRP, citrated blood (containing 0.38% sodium citrate as a final concentration) was withdrawn by cardiac puncture from Hartley-strain male guinea pigs having a body weight of 350 to 600 g. The citrated blood was centrifuged at 1,000 rpm for 10 minutes at room temperature, and the supernatant platelet suspension (PRP) was separated.
The PRP was stored at room temperature, and used as soon as possible. Those which had been stored for more than 4 hours after preparation were not used.
For each test, a drug is dissolved in dimethylsulfoxide to a concentration of 10 mg/ml, and diluted with physiological saline to form 1 ml each of solutions having a concentration of 2500 μg/ml, 1000 μg/ml, 750 μg/ml, 500 μg/ml, 250 μg/ml and 100 μg/ml. A compound having a free carboxylic acid as a residue such as indomethacine and Ibprofen was dissolved in 0.1 M NaHCO3 to form a sodium salt solution having a concentration of 10 mg/ml. Then, the solution was diluted with physiological saline in the same way as above to form a test drug solution.
Arachidonic acid (99% pure, a product of Sigma Co., Ltd.) was dissolved in 0.1 M NaHCO3, and a 3.3 mM solution of sodium arachidonate was prepared. The solution was diluted with physiological saline to a concentration of 1 mM and used in the experiments. The 3.3 mM solution was stored in a refrigerator as a stock solution, and the 1 mM solution was newly prepared from the stock solution every time it was used.
Physiological saline (50 μl) and 50 μl of the aggregating agent solution were added to 400 μl of PRP which had been pre-warmed and stirred at 37° C. in a quvett set in a holder of an aggregometer. Platelet aggregation was thus initiated, and the change of light transmittance through a stirred platelet suspension was recorded for 3 minutes by a recorder joined to the aggregometer. An increase in transmittance after 3 minutes (T0) was used as a parameter of the rate of platelet aggregation in control experiments.
To 400 μl of PRP in a quvett was added 50 μl of a test drug solution. The mixture was pre-incubated and stirred for 2 minutes at 37° C. Then 50 μl of the aggregating agent was added to drug containing PRP and again aggregation responses were recorded as increases in light transmittance after 3 minutes (T1) in the same way as in (1) above. Percent inhibition was calculated from the formula [formula]
For the above in vitro test for the inhibition of platelet aggregation, reference may be had to H. M. Davis, J. Phyllis, K. Paul and W. Terry: Thromb. Res. 11, 217-226 (1977) and R. E. Anderson and J. G. Foulks: Thromb. Haemos. 36, 343-359 (1976).

Test [2] deals with biosynthesis of prostaglandins (microsomes of the seminal vesicle of bovine). Put plainly: Inhibitory effect on prostaglandin biosynthesis in vitro (Table 3). Type of test: biochemical. Particulars: 4 μg/ml sodium arachidonate, bioassay on rat fundus stomach strips. Here is the method:
Sprangue-Dawley rats (male, 180-200 g) were fasted overnight, and killed by blow on the head. The stomach was isolated, and fundus stomach strips were prepared. The smooth muscle strips were perfused with Krebs-Hensleit solution (gassed with 95% O2 +5% CO2 gas) of 37° C. at a rate of […]. The Krebs-Hensleit solution contained 0.1 μg/ml of atropine, 0.1 μg/ml of phenoxybenzamine, 3 μg/ml of propranolol, 0.1 μg/ml of tripelennamine, and 0.2 μg/ml of methylsergide to prevent the effect of smooth muscle contracting substances, and 1 μg/ml of indomethacine to inhibit the biosynthesis of prostaglandin by the smooth muscles. Then, 150 μl of a reaction solution containing biologically synthesized prostaglandin was added to the perfusion solution, and the amount of the biologically synthesized prostaglandin was measured from the contraction of the smooth muscles. The contraction of the smooth muscles was recorded on a recorder using an isotonic transducer.
The reaction solution containing biologically synthesized prostaglandin was prepared in the following manner.
To 0.4 mg/ml of microsomes of the seminal vesicle of bovine were added 5 mM of L-tryptophan, 0.025 μM of bovine hemoglobin and 3 mμ of glutathione as cofactors. The mixture was incubated together with each of the test compounds shown in Table 4 at 37° C. for 2 minutes, and immediately then, 4 μg/ml of sodium arachidonate was added. The mixture was further incubated at 37° C. for 10 minutes, and immediately then, the prostaglandin activity of the reaction solution was measured by bioassay.
The microsomes of the seminal vesicle of bovine had been prepared by suspending microsomes of the seminal vesicle of bovine (a product of Miles Laboratories, Inc.) in a 50 mM Tris.HCl buffer (pH 7.4) using a glass homogenizer, and stored in ice water prior to use.
ID50 denotes the concentration of each test compound required to inhibit the biosynthesis of prostaglandins by 50%.

In a further test the test system is carrageenan edema. In words: Antiinflammatory activity (carrageenan edema of rat paw, Table 5). Type of test: in vivo, Sprangue-Dawley (SD) male rats. As to conditions: 100 mg/kg orally, 3 h after 1% carrageenan. The procedure: Sprangue-Dawley (SD) male rats with a body weight of 160 to 180 g, four in each group, were used. The volume of the left leg was measured, and each of the test compounds shown in Table 5 (100 mg/kg dissolved in polyethylene glycol so as to provide a volume of 2 ml/kg) was orally administered. One hour later, 0.1 ml of 1% carrageenan (dissolved in physiological saline) as an inflammation-inducing substance was subcutaneously injected to the paw of the left hind leg. A control group was orally administered with 2 ml/kg of polyethylene glycol. As a positive control, 25 mg/kg of Ibprofen was similarly administered. Three hours after the injection of 1% carrageenan, the volume of the left leg was measured, and the ratio of edema was calculated from the volume before the administration of the carrageenan. The percent inhibition of edema in comparison with the control group was determined.
(In the carrageenan paw model, swelling and tenderness develop within hours.)

Test [3] has as its system platelet aggregation (guinea pig PRP, extra vivo). In words: Inhibitory effect of compounds on platelet aggregation in extra vivo (Table 4). Particulars: Cavia porcellus, 100 mg/kg, route PS [sic], 1 h. The arrangement: species or system Hartley-strain guinea pigs. Here is the method: The effect of the compounds shown in Table 4 on platelet aggregation was assessed using guinea pig in extra vivo.
Each of the test compounds was dissolved in propylene glycol so that its concentration became 100 mg/ml (dosage corresponded to 100 mg/kg) and 30 mg/ml (dosage corresponded to 30 mg/kg). The drug solution was administered either orally or subcutaneously to Hartley-strain guinea pigs (3 per group) having a body weight of 300 to 350 g. As a control, propylene glycol was administered. One hour after the administration, citrated blood was taken out by cardiac puncture, and centrifuged to obtain PRP (see Example 67).
In the case of oral administration, the animals had been fasted overnight.
Into a quvett set in a holder of an aggregometer and prewarmed at 37° C. with stirring, was put 450 μl of the above PRP, and then 50 μl of an aggregating agent was added. The aggregation curve was recorded for an additional 3 minutes, and an increase in light transmittance through PRP after 3 minutes (TB) was recorded (see Example 67). As a control, an increase of transmittance of PRP taken from a guinea pig group administered with propylene glycol alone (TA) was recorded in the same way above. The percent inhibitions were calculated in accordance with the following equation. [formula]
As the aggregating agent, sodium arachidonate (a final concentraton of 0.03 mM) and a collagen suspension (a final concentration of 5 μg/ml) were used.
The percent inhibitions in the above table are averages of three guinea pigs. For details of the above extra vivo test about inhibition of platelet aggregation, the literature references described in Example 67 may be referred to.

Where [4] appears, read: collagen 5 μg/ml, read-out: Percent inhibition of platelet aggregation, collagen.
[5] abbreviates: sodium arachidonate 0.03 mM, read-out: Percent inhibition of platelet aggregation, sodium arachidonate.

For `COCC(C)n1c(C)cc(C(=O)c2ccccc2)c1C` (stereo not shown) [Compound 206, 2-(3-benzoyl-2,5-dimethylpyrrol-1-yl)-2-methylethyl methyl ether], in test [1], the IC50 came to 2.5 µg/mL (≈ 9.21 µM). Further, the “ID50 (concentration required to inhibit the biosynthesis of prostaglandins by 50%)” value in test [2] was determined as 18.4 µg/mL. Further, the “Percent inhibition of edema” value in the test with carrageenan edema stood at 10%. In addition, the inhibition at 100 mg/kg in test [3] (setting [4]) turned out to be 97%; in test [3] (setting [5]), 90%.

For the compound `CC(=O)OCC(C)n1c(C)cc(C(=O)c2ccccc2)c1C` (stereo not shown) [Compound 306, 2-(3-benzoyl-2,5-dimethylpyrrol-1-yl)-2-methylethyl acetate], the IC50 in test [1] is 7.5 µg/mL. For the same compound, in test [2], the “ID50 (concentration required to inhibit the biosynthesis of prostaglandins by 50%)” value amounted to 5.6 µg/mL. Also, the “Percent inhibition of edema” value with carrageenan edema is reported as 16%. The inhibition at 100 mg/kg in test [3] (setting [4]) was 34%; in test [3] (setting [5]) it was 62%.
